From ChEMBL document CHEMBL1159369, “Isolation, structure, and HIV-1 integrase inhibitory activity of Cytosporic acid, a fungal metabolite produced by a Cytospora sp” (J Nat Prod, 2003)
pIC50: −log10 of the molar value. Calls of active or inactive are those of the source. No cut-off for these calls is given here.

Key:
[1] = target: Human immunodeficiency virus type 1 integrase (Human immunodeficiency virus 1) (UniProt Q7ZJM1); test: Inhibition of HIV1 integrase strand transfer activity at 200 uM
[2] = target: Human immunodeficiency virus type 1 integrase (Human immunodeficiency virus 1, UniProt Q7ZJM1); test: Inhibition of HIV1 integrase strand transfer activity
Sequence of Human immunodeficiency virus type 1 integrase (Q7ZJM1 whole entry): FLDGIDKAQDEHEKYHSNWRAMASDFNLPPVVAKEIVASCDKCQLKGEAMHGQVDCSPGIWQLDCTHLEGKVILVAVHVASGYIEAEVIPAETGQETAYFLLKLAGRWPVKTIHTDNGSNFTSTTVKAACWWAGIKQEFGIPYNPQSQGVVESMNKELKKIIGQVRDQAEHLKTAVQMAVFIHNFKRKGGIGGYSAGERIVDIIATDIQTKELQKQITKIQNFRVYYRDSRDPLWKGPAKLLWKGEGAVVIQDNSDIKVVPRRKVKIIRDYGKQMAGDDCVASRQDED

Sequence of Human immunodeficiency virus type 1 integrase (Human immunodeficiency virus 1) (Q7ZJM1 as listed by the source): as the sequence (Q7ZJM1 whole entry) above

| Activity [1] | pIC50 [2] | Structure (SMILES) |
| --- | --- | --- |
| inactive | – | CCCCCC[C@@H](C)C1=C(O)C(=O)[C@@H]2[C@H](O)[C@H](C)C[C@H](O)[C@H]2[C@]1(C)C(=O)CCO |
| – | 4.70 | CCCCCC[C@@H](C)C1=C(O)C(=O)[C@@H]2[C@H](O)[C@H](C)C[C@H](O)[C@H]2[C@]1(C)C(=O)/C=C\O [AUSTRALIFUNGIN] |
| – | 4.70 | CCCC[C@@H](C)C1=C(O)C(=O)[C@@H]2C[C@H](C)C[C@H](C(=O)O)[C@H]2[C@]1(C)C(=O)CCO [CYTOSPORIC ACID] |
